Measurements: publication PMC9671962 (Communications Biology, 2022)
Values joined by “and” are separate entries in the source; they are usually repeats but may differ in a detail not shown here. Equal entries are not always repeated.

What was measured:
[1] = cited from earlier work
[2] = system: high-risk neuroblastoma patient-derived xenograft (PDX) mouse models; assay: Pre-clinical efficacy study in 11 neuroblastoma PDX mouse models (grouped analysis); format: in vivo
Experimental: Patient demographics and genetic characteristics are listed in (Supplementary Tables 1, 2)[17]. The maximum tolerated dose (MTD) was determined to be 36 MBq/kg administered by intra-peritoneal injection twice weekly for a total of 4 dose fractions and this fractionated regimen was used in all studies (Supplementary Fig. 1)[18],[19]. […] Nine of 11 PDX models were MYCN amplified (Fig. 1b), which is a hallmark of high-risk neuroblastoma. Tumor response was measured as the maximum percent decrease in tumor volume after treatment and event-free survival (EFS) was measured by the area over the curve method with tumor events pre-defined by tumor growth exceeding 2 cm[3],[18].
The use of 2 mice per arm was based on the previously reported statistical analysis. PDX tumors were implanted into the right flank of 5 to 6-weeks old female mice weighing about 20–25 grams. […] Two additional dose levels of 12, and 24 MBq/kg/fraction were assessed in a subset of models and were administered as stated above. In two models treated at the 24 MBq/kg/fraction dose level we re-challenged tumor response at the time of tumor progression with an additional 4 dose fractions at 24 MBq/kg/fraction given twice weekly. Doses were prepared in 500 µL total volume. An equal volume of saline was used for the vehicle group. Tumors were measured using a digital caliper at the initiation of the study and two times per week during the treatment period. Tumor volumes were calculated as volume = ([…]∗0.5236)/1000. Weights were obtained twice weekly and mice were monitored daily for signs of toxicity. […] Tumor response was assessed by best response defined as greatest reduction in tumor volume following the last dose and is presented as percent change in tumor volume. Event-free survival was determined by area over the curve method that calculates the time to tumor event, which was defined as tumors reaching or exceeding a size ≥ 2 cm^3.
Animal studies were performed in female mice due to the lack of sex-related differences for [^211At]PTT tolerability from initial dose response studies performed in female and male mice. Female mice were chosen due to their underlying behavior towards other study subjects that reduced nonstudy-related causes for decreased wellness. Pre-clinical efficacy studies were performed through “single mouse testing” to more closely recapitulate a clinical trial. […] Number size for treatment groups was determined by model tumor growth reproducibility, which was previously shown to have less than 5% normal variation with at least two animals. Statistical tests for tumor response and event-free survival (EFS) were performed as a grouped analysis that included all tumor models treated at each respective dose level (n = 2 per model per dose level). Statistical differences between treatment groups for tumor response was performed by paired-model T-test that compared reduction in tumor volume for the 36 MBq/kg dose level vs. 24 MBq/kg or 12 MBq/kg. Event free survival was measured by area over the curve method to quantify time to event, which was set as tumor growth exceeding 2 cm[3],[19]. Differences in EFS were tested across all treated models for each respective dose level, and against untreated controls, by paired-model ANOVA analysis. Associations of drug target expression and response were performed by linear regression analysis of EFS and PARP1 mRNA expression. Genetic signatures were visually presented as a function of EFS and no statistical tests were applied. Blood and marrow toxicity studies were performed with n = 5 sample sizes and powered to detect >20% differences between untreated controls and treated animals. Results were tested for significance by one-way ANOVA comparison from untreated controls. Marrow colony formation assays were performed in replicates of 2 for each mouse subject, dependent on marrow isolation, and all replicates are included in final analyses. […]

PARP1 = assay: Clinical PET imaging / first-in-human dosimetry of [^18F]FTT and extrapolation to [^211At]PTT; format: in vivo
[3] = system: marrow progenitor cells (GEMM, GM); assay: Marrow toxicity by marrow progenitor colony formation assay; format: in vivo, CB57/BL6 mice
Experimental: Toxicity studies were done in nontumor bearing CB-17 SCID mice (Taconic Biosciences). […] Each arm had n = 10 mice (5 male, 5 female mice). […] The vehicle group received an equal volume of saline (placebo). Weights were obtained twice weekly and mice were monitored daily for signs of toxicity. […] On target hematological and marrow toxicity which was evaluated by complete blood counts and marrow colony formation assay. An additional study was performed under identical conditions to evaluate additive dose effects. […] Each treatment group was composed of equal numbers of male and female mice to rule out gender-specific effects (n = 4 per treatment group per time point). Mice were followed for signs of acute toxicity for 2 weeks and 4 weeks before euthanasia. An additional group (n = 4) treated at 36 MBq/kg was euthanized after 72 h to assess early signs of toxicity by colony formation assays. This time course was chosen to best capture the nadir of bone marrow suppression. After euthanasia, blood was collected and femurs were dissected and processed for histopathology and bone marrow evaluation.
After euthanasia, mouse hind limbs were dissected as previously described for bone and marrow isolation. The other hind limb was processed for bone marrow via centrifugation. Bone marrow pellets were resuspended in 1 X RBC Lysis Buffer (BioLegend, San Diego, CA) and rocked on a tilt-table for 5 minutes. Bone marrow cell pellet was isolated by centrifugation at 13,000 RPM on a tabletop centrifuge for 1 minute. Cells were resuspended in IMDM with 2% FBS (Gibco, ThermoFisher Scientific, Grand Island, New York) and counted on a Countess II Automated Cell Counter (ThermoFisher Scientific, Grand Island, NY).
Colony formation assays were performed per manufacturer’s protocol. In brief, 1.8 ×10^5 bone marrow cells suspended in 300 µL IMDM with 2% FBS were combined with 3 mL of Mouse Methylcellulose Complete Media (R&D Systems Inc, Minneapolis, MN). Gel mixture was syringe-pipetted in duplicate to lids of 6 cm culture dishes and housed with a 6 cm sterile water dish within a 25 cm culture dish. Cultures were incubated at 37 °C for 8 days prior to analysis on a microscope. Colonies were counted by one individual per manufacturer’s recommended protocol. Of note, at least 30 cells were required to call a colony positive.

[4] = 4 wk after 2 dose fractions at 36 MBq/kg/fraction
[5] = 36 MBq/kg x 4 dose fractions, 72 hours post-treatment, replicate
[6] = 48 MBq/kg x 4 dose fractions, 72 hours post-treatment, replicate
[7] = 60 MBq/kg x 4 dose fractions, 72 hours post-treatment, replicate
[8] = dose escalation 36, 48, 60 MBq/kg x 4 fractions

## O=C1NCCn2c(-c3ccc([211At])cc3)nc3cccc1c32 [[^211At]PTT, Astatine-211-parthanatine]
[1]
  fold more cytotoxic than the non-radioactive PARP inhibitor analog (KX1): ~1 billion
[2]; 12 MBq/kg dose level
  median EFS: 23 days
[2]; 12 MBq/kg dose level (COG-N-415x n = 1, COG-N-453x n = 1)
  mouse tumors showing progressing disease after treatment: two
[2]; 12 MBq/kg, n = 8, 4 PDX models
  average decrease in tumor volume: 27.15 ± 42.2%
[2]; 24 MBq/kg dose level
  median EFS: 46 days
[2]; 24 MBq/kg re-challenge, COG-N-426x-Felix and NB-EBC1x, n = 2
  reduction in tumor volume after therapy re-challenge: 100%
[2]; 24 MBq/kg, n = 14, 7 PDX models
  average decrease in tumor volume: 92.6 ± 8.1%
[2]; 36 MBq/kg (MTD), n = 22, 11 PDX models
  average decrease in tumor volume: 98.4 ± 3.3%
[2]; 36 MBq/kg/fraction x4 (MTD)
  median event free survival (EFS): 74 days
[2]; MTD, 6/20 mice, >95 days (b1), >90 days
  mice with no measurable tumor/disease at end of study: 30%
[2]; MTD, 18 of 22 tumors
  complete tumor response, share of tumors: 81.8%
PARP1; RBE of 5 for alpha radiation
  extrapolated equivalent dose to the kidneys: approximately 2 mSv/MBq
PARP1; estimate from [^18F]FTT clinical data and pre-clinical uptake
  estimated SUVmax in neuroblastoma tumors: approximately 10
PARP1; patient, biological half-life 5.1 hr and SUVmax of 10
  rough estimate of absorbed tumor dose: 0.17 Gy per MBq/kg
PARP1; using human biodistribution results of [^18F]FTT in adults
  estimated renal absorbed dose: 0.25–0.41 mGy/MBq
[3]; 3 dose fractions at 36 MBq/kg
  time by which marrow recovery stabilized, GEMM and GM progenitor cells: ≤ 2 weeks
[3]; [4]
  GEMM (CFU): 4 CFU and 7.5 CFU and 6 CFU and 5 CFU
  GM (CFU): 22 CFU and 36.5 CFU and 33 CFU and 24 CFU and 38 CFU
[3]; [5]
  GEMM (CFU): 7 CFU and 3 CFU and 2 CFU and 8 CFU and 14 CFU and 5 CFU and 9 CFU
  GM (CFU): 15 CFU and 10 CFU and 23 CFU and 13 CFU and 9 CFU
[3]; [6]
  GEMM (CFU): 12 CFU and 5 CFU and 7 CFU and 3 CFU and 6 CFU
  GM (CFU): 1 CFU and 5 CFU and 2 CFU and 12 CFU and 6 CFU and 7 CFU
[3]; [7]
  GEMM (CFU): 2 CFU and 3 CFU and 8 CFU and 7 CFU and 6 CFU and 4 CFU
  GM (CFU): 5 CFU and 8 CFU and 7 CFU and 4 CFU
[3]; 72 hrs after 2 dose fractions at 36 MBq/kg/fraction
  GEMM (CFU): 4 CFU and 6 CFU and 3 CFU and 5 CFU and 4.5 CFU
[3]; [8]
  colony formation of early marrow progenitor cells (GEMM): reduced only at the highest dose level evaluated (60 MBq/kg)
  colony formation of granulocyte and megakaryocyte progenitors: reduction in colony formation at all dose levels evaluated
[3]; post treatment, 3 dose fractions at 36 MBq/kg
  time of full recovery of colony formation: 4 weeks
